One assay has as its system bronchial smooth muscle. As to the kind of experiment: Bronchus-expanding action: relaxation of carbachol-contracted guinea pig tracheal chain in organ bath. To be noted: 0.1 μmol/l carbachol-contracted trachea. The assay is classed as cell-based, guinea pigs. The text has this:
Purified peptides 1 to 15 obtained in Examples 1 to 15 were examined for their bronchus-expanding action in the following manner and compared with that of VIP and PACAP.
Male guinea pigs each weighing 450 to 500 g were cut at the jugular veins to open the chests, and immediately the tracheae were immediately removed. Their tracheae were immediately placed in a Krebs solution and cut into loops and then formed into a chain by linking the cartilage parts with one another via a steel string. Then, the cartilage parts in the opposite side to the smooth muscular parts were cut such that the smooth muscular parts were attached to one another. The resulting sample was placed in an about 10-ml isothermic organ bath and perpendicularly suspended. The lower part was fixed and the upper part was connected to a grass force transducer with a load of 1.4 g. A gas of 94% oxygen and 6% carbon dioxide was sufficiently blown into this sample while a Krebs solution containing 0.1μ mol/l carbachol was dropped to it at a rate of 0.33 ml/min. to determine relaxation action. Because the relaxation reaction occurs depending on the content of a test sample in this drop solution, this can be used to compare the relaxation action of VIP and PACAP and that of the peptides of the invention on the bronchial smooth muscle.
A solution of each of […], PACAP and the peptides of the invention was prepared in a concentration as high as 100-fold than the final concentration so that its concentration in the organ bath could be adjusted. 30 minutes after the carbachol-containing Krebs solution was dropped, 100 μl of the sample solution was dropped.
It was assumed that the degree of contraction of the smooth muscle is 0 in the absence of carbachol and the degree is 100 in the presence of carbachol. Minimum contraction degree A (i.e. maximum relaxation value) in the presence of the sample was determined, and maximum relaxation degree B was calculated as follows:
Maximum relaxation degree B (%)=100-A
The time required to reach half of the maximum relaxation value (referred to hereinafter as "half-time T") after the addition of the sample was determined.
A change in the relaxation degree of the bronchial smooth muscle with time was determined using each peptide at 3 dosages of 0.3 μM, 1 μM, and 3 μM respectively. The results are shown in the drawings: PACAP in FIG. 1; peptide 5 obtained in Example 5, in FIG. 2; VIP in FIG. 3; and peptide 11 obtained in Example 11, in FIG. 4. The maximum relaxation degree B at a dosage of 3 μM is 75% for peptide 5 and 80% for peptide 11, and half-time T is 360 minutes or more in both the cases.

Another assay concerns Wistar male rats. As to the kind of experiment: Blood-flow increasing action in anesthetized rats (femoral artery blood flow, carotid blood pressure). The assay is classed as in vivo. To be noted: 100 pmol/kg intraarterially, right femoral artery. On the procedure:
Purified peptides 1 to 15 obtained in Examples 1 to 15 were examined for their blood-flow increasing action and compared with those of VIP and PACAP. Wistar male rats each weighing 220 to 250 g were anesthetized by intraperitoneal administration of pentobarbital (25 mg/kg) and fixed on their back. An arterial canula was inserted into the carotid and then connected to a blood-pressure transducer (DX-300, Nippon Koden, Japan) via a doom kit (SCK-512, Nippon Koden) filled with heparin-containing physiological saline (10 U/ml) to measure blood pressure with a strain blood-pressure amplifier (AP-601G, Nippon Koden). Further, a blood-flow measurement probe (FR-030T, Nippon Koden) was attached to the right femoral artery and then connected to an electromagnetic blood-flow meter (MFV-3200, Nippon Koden) to measure blood flow. The dosage of each peptide intraarterially administrated was 100 pmol/kg.

Ends that are not written are not given here.

For the substance vasoactive intestinal peptide [VIP], the “Half-time T (time required to reach half of the maximum relaxation value)” value was 130 min in the assay on bronchial smooth muscle (0.3 μM), 150 min with bronchial smooth muscle (1 μM) and 240 min in the assay on bronchial smooth muscle (3 μM). Further, the results for the “Maximum relaxation degree B” value in the assay with bronchial smooth muscle (0.3 μM), in the assay with bronchial smooth muscle (1 μM) and in the assay on bronchial smooth muscle (3 μM) were 45%, 80% and 85%, respectively. Also, in the assay on Wistar male rats, the “Blood Flow (increase in blood flow)” value came out at 10.18 ± 3.38 mL/min.
As for “pituitary adenylate cyclase activating polypeptide (HSDGIFTDSYSRYRKQMAVKKYLAAVLGKRYKQRVKNK; ends and bridges not checked; UniProt P16613 132-169, looked up) [PACAP, structurally determined peptide consisting of 38 amino acid residues, isolated from sheep hypothalamus]”, the “Half-time T (time required to reach half of the maximum relaxation value)” value in the assay with bronchial smooth muscle (0.3 μM) was 60 min; with bronchial smooth muscle (1 μM), 60 min; with bronchial smooth muscle (3 μM) it was 100 min. In addition, the “Maximum relaxation degree B” value was determined as 40% with bronchial smooth muscle (0.3 μM), 90% with bronchial smooth muscle (1 μM) and 90% in the assay on bronchial smooth muscle (3 μM). The “Blood Flow (increase in blood flow)” value in the assay with Wistar male rats was determined as 16.04 ± 5.92 mL/min.

For the origin of these results see patent publication US5856303A, “Peptide, a bronchus-expanding agent, and a blood-flow-improving agent” (Itoham Foods, Inc., priority 1995, dated 1999).
